In patent publication US20260335277A1, “CHLOROTONIL DERIVATIVES” (priority 2023, published 2026):
Read-outs that look alike come from different tables or passages of the source.

Tests used:
[1] = Metabolic stability; format: in vitro ADME; conditions: for microsomal CLint: liver microsomes, read-out: microsomal clearance
Method: (§1) Complementing the toxicity profiling, ADME properties of the lead dehalogenil were determined. This had not been possible for the first generation frontrunner ChB1-Epo2 or the natural product ChA because of their poor limit of detection. […] Across species (mouse, rat, human), metabolic stability is high while plasma stability is moderate. Besides, no hemolysis and no inhibition of the metabolically important enzyme CYP3A4 was observed by both dehalogenil and ChA. Plasma protein binding (PPB) is >99.4% in all species.

[2] = Plasma stability; format: in vitro ADME; conditions: for half-life: plasma, read-out: plasma stability t1/2 (converted)
Method: as §1

[3] = Plasma protein binding (PPB); format: in vitro ADME
Method: as §1

[4] = Hemolysis; format: cell-based
Method: as §1

[5] = In vivo PK after peroral administration (soy oil); set-up: species or system mouse; conditions: for half-life / AUC(0-t) / Cmax / Tmax: mouse, plasma; for half-life: read-out: t1/2z (converted)
Method: Peroral administration was compared between dehalogenil and ChB1-Epo2. […] Clearance was slow (t1/2z 5.5 and 10 h for 10 and 50 mg/kg, respectively) but considerably higher than for ChB1-Epo2.

[6] = In vivo PK, peroral vs. intravenous administration, peroral bioavailability; set-up: species or system mouse; conditions: for half-life: read-out: t1/2z (converted)
Description: According to the current invention, intravenous injection in vivo was possible for the first time using a vehicle consisting of 50% ClearSol™ in phosphate buffered saline (PBS) pH 7.4.

[7] = In vivo PK after subcutaneous application (50% ClearSol/PBS pH 7.4); set-up: species or system mouse; conditions: for Cz / tz / AUC(0-t) / Cmax / Tmax: n = 3; for AUC(0-t) / Cmax / Tmax: mouse, in vivo
Method: Dehalogenil was further applied subcutaneously at 5, 10 and 25 mg/kg in 50% ClearSol™/PBS pH 7.4.

[8] = literature product; cited from earlier work
[9] = mice, oral, soy oil, vs ChB1-Epo2
[10] = po, mice, 10 mg/kg, mean (n = 3)
[11] = po, mice, 50 mg/kg, mean (n = 3)
[12] = mouse, in vivo, mice, 7.5 mg/kg iv, mean (n = 3)
[13] = mouse, in vivo, mice, 10 mg/kg po, mean (n = 3)

## CC1=CC(C)C2C(C=CC3C(C)C=CC=CC(C)OC(=O)C(C)C(=O)CC(=O)C32)C1 (stereo not drawn) [dehalogenil]
[1]; human
  metabolic stability: high
  microsomal CLint: 6.4 µL/min/mg
[1]; mouse
  metabolic stability: high
  microsomal CLint: 6.4 µL/min/mg
[1]; rat
  metabolic stability: high
  microsomal CLint: 14 µL/min/mg
[2]; human
  plasma stability: moderate
  half-life: 1.4 h
[2]; mouse
  plasma stability: moderate
  half-life: 1.5 h
[2]; rat
  plasma stability: moderate
  half-life: 1.2 h
[3]; human, all species: human, read-out: Plasma protein binding (PPB)
  fraction unbound: < 0.006
[3]; human, read-out: plasma protein binding
  fraction unbound: < 0.004
[3]; mouse, all species: mouse, read-out: Plasma protein binding (PPB)
  fraction unbound: < 0.006
[3]; mouse, read-out: plasma protein binding
  fraction unbound: < 0.002
[4]
  hemolysis: no hemolysis
[4]; 20 μM, human blood cells, read-out: haemolysis of human blood cells
  hemolysis at 20 µM: 1.4%
[5]; mice, 10 mg/kg, p.o., mean (n = 3)
  tz: 24 h
[5]; mice, 50 mg/kg, p.o., mean (n = 3)
  tz: 24 h
[5]; [9]
  AUC0-tz compared to ChB1-Epo2: ca. six-fold higher
  cmax compared to ChB1-Epo2: ca. four-fold higher
[5]; mice, po, soy oil
  Clearance: slow
[5]; po, 10 mg/kg, mice, 10 mg/kg po, soy oil
  half-life: 5.5 h
[5]; po, 10 mg/kg, mice, 10 mg/kg, p.o., mean (n = 3)
  half-life: 5.5 h
[5]; po, 50 mg/kg, mice, 50 mg/kg po, soy oil
  half-life: 10 h
[5]; po, 50 mg/kg, mice, 50 mg/kg, p.o., mean (n = 3)
  half-life: 10.2 h
[5]; [10]
  AUC(0-t): 3020 ng·h/mL
  Cmax: 261 ng/mL
  Tmax: 3 h
[5]; [11]
  AUC(0-t): 8360 ng·h/mL
  Cmax: 579 ng/mL
  Tmax: 3 h
[5]; rodents, comparator chlorotonil B1-Epo2 (implied)
  higher plasma levels: 3 fold
[6]; mice, 7.5 mg/kg iv (reference)
  bioavailability: 100%
[6]; mice, 7.5 mg/kg iv, mean (n = 3)
  tz: 24 h
[6]; mice, 10 mg/kg po, mean (n = 3)
  tz: 24 h
[6]; [12]
  AUC(0-inf): 12100 ng·h/mL
  AUC(0-t): 9580 ng·h/mL
  C0: 872 ng/mL
  half-life: 10.8 h
[6]; mouse, in vivo, mice, 10 mg/kg po vs 7.5 mg/kg iv, read-out: Bioavailability
  bioavailability: 9.5%
[6]; [13]
  AUC(0-inf): 1540 ng·h/mL
  AUC(0-t): 1400 ng·h/mL
  Cmax: 101 ng/mL
  Tmax: 3 h
  half-life: 6.7 h
[6]; mouse, in vivo, rodents, oral, read-out: oral bioavailability
  bioavailability: ~10%
[7]; mice, 5 mg/kg sc
  Cz: 109.0 ng/mL
  tz: 24.0 h
  AUC(0-t): 2690 ng·h/mL
  Cmax: 125 ng/mL
  Tmax: 7 h
[7]; mice, 10 mg/kg sc
  Cz: 257.0 ng/mL
  tz: 24.0 h
  AUC(0-t): 8090 ng·h/mL
  Cmax: 488 ng/mL
  Tmax: 3 h
[7]; mice, 25 mg/kg sc vs 7.5 mg/kg iv
  Plasma levels, subcutaneous vs intravenous: comparable to 7.5 mg/kg dehalogenil applied intravenously
[7]; mice, 25 mg/kg sc
  Cz: 595 ng/mL
  tz: 24.0 h
  AUC(0-t): 18500 ng·h/mL
  Cmax: 1200 ng/mL
  Tmax: 3 h
[7]; mice, 5, 10 and 25 mg/kg sc
  Dose response after subcutaneous application: suitable dose response
[8]
  activity described in the literature: inactive
